Data from publication PMC12914960, “Repurposing a detrimental antibody epitope as targeted therapeutics for sepsis and rheumatoid arthritis” (Military Medical Research, 2026).
Where “and” joins values, the source holds several entries; their conditions need not be identical. Equal entries are not always repeated. Where a SMILES comes first, the peptide text is derived from it.

Experiments:
CAIA in BALB/c mice = test: Arthritis severity score, collagen antibody-induced arthritis (CAIA); type: in vivo, mouse
Procedure: The CAIA model was established in BALB/c mice (8–10 weeks old) as described previously. On Day 0, the mice received an i.p. injection of 2 mg of anti-collagen II mAb cocktail (α-CII, Chondrex, Inc., Redmond, WA, USA). On Day 3, the mice received an i.p. injection of 30 µg of LPS [Escherichia coli (E. coli) O111:B4; Sigma-Aldrich, St. Louis, MO, USA] to activate inflammation and synchronize arthritis onset. The mice were randomized to the control vehicle (n = 5 or n = 7–10) or experimental groups (n = 5 or n = 7–10). Therapeutic agents [P2-1 peptide (1.0 or 2.0 mg/kg) or pCTS-L-neutralizing mAb2 (1.0, 2.0, or 4.0 mg/kg)] were administered i.p. daily, either prophylactically from–Day 2 or therapeutically from Day 6 post-α-CII challenge. Arthritis severity was scored daily via a clinical scoring system [0–4 per paw: 0 = normal; 1 = mild redness and swelling in a single joint type (ankle, wrist, or individual digit); 2 = moderate redness and swelling affecting two joint types; 3 = severe redness and swelling across all 3 joint types; 4 = maximal redness and swelling of the entire paw that obscured the joint definition].
On Day 0, the mice recei ved an i.p. injection of 2 mg of anti-collagen II m Ab cocktail (α-CII, Chondrex, Inc., Redmond, WA). […]

[1] = system: CAIA-induced pain sensitivity in BALB/c mice; test: Mechanical allodynia, Von Frey filaments, in CAIA mice; type: in vivo, mouse; design: key to CAIA-induced pain sensitivity (Von Frey score) / CAIA-induced pain response (Vor Frey score): 50% paw withdrawal threshold, force in g; settings: for CAIA-induced pain response (Vor Frey score): female, effect of mAb2, P2-1
Procedure: Mechanical allodynia was assessed using Von Frey filaments (Stoelting Co., Wood Dale, IL, USA) applied to the plantar surface of the hind paws as previously described. The mice (n = 6–10) were habituated to individual transparent enclosures on an elevated wire mesh platform. Calibrated Von Frey filaments (0.008–2.000 g) were applied for 2–3 s or until a withdrawal response occurred. The “up-down” method determines the 50% paw withdrawal threshold, defined as the force required to elicit a withdrawal response in 50% of applications.

human PBMCs = test: HMGB1-induced cytokine/chemokine secretion by PBMCs, cytokine antibody arrays; type: cell-based; settings: P2-1 5.0 or 10.0 µg/ml, 16 h
Procedure: Human blood was purchased from the New York Blood Center (Long Island City, NY, USA), and PBMCs were isolated via density gradient centrifugation through Ficoll (Ficoll-Paque PLUS) as previously described. PBMCs were cultured in RPMI-1640 supplemented with 10% human serum, 2 mmol/L L-glutamine, 100 U/ml penicillin, and 100 µg/ml streptomycin (all from Invitrogen, Carlsbad, CA, USA). For experiments, PBMCs were stimulated with recombinant HMGB1 (0.5 or 2.0 µg/ml) for 16 h, either alone or in combination with P2-1 at 5.0 or 10.0 µg/ml. Cell-free supernatants were collected for analysis of cytokine/chemokine levels via cytokine antibody arrays, or pCTS-L levels via Western blotting analysis as previously described.
The levels of cytokines and chemokines in mouse serum and joint tissue lysates, or human PBMC culture supernatants, were determined via murine or human cytokine antibody arrays (e.g., Cat. #AAM-CYM-3–8 or Cat. #AAH-CYT-3–8, RayBiotech Inc., Norcross, GA, USA) as previously described. For the sepsis model, blood samples were collected from the mice (n = 4) at 24 h post-CLP. […] Arrays were performed according to the manufacturer’s protocol, followed by chemiluminescent detection and densitometric quantification as previously described. […]

Compound: CCCC[C@H](NC(=O)[C@H](Cc1c[nH]cn1)NC(=O)[C@@H](NC(=O)[C@H](CCCCN)NC(=O)[C@@H](N)[C@@H](C)O)C(C)C)C(=O)N[C@@H](CCCCN)C(=O)N[C@@H](CO)C(=O)N[C@@H](Cc1ccccc1)C(=O)N[C@@H](CC(C)C)C(=O)N[C@@H](C)C(=O)N[C@@H](Cc1ccccc1)C(=O)N[C@@H](CCC(N)=O)C(=O)N[C@H](C(=O)N[C@@H](CCCCN)C(=O)N[C@H](C(=O)O)[C@@H](C)O)[C@@H](C)O [P2-1] (HELM PEPTIDE1{T.K.V.H.[Nle].K.S.F.L.A.F.Q.T.K.T}$$$$V2.0; N-terminus and C-terminus assumed)
- arthritis severity, in words (CAIA in BALB/c mice; P2-1 1.0 or 2.0 mg/kg i.p. daily from Day 6 (therapeutic)): dose-dependently and significantly attenuated CAIA-induced arthritis severity
- arthritis severity, in words (CAIA in BALB/c mice; P2-1 prophylactic, from Day -2, significant by Day 7): significantly reduced arthritis severity
- CAIA-induced pain sensitivity (Von Frey score) ([1]; CAIA + P2-1 (Day 10), individual values, P = 0.04443 vs. CAIA + Vehicle): 0.14 and 0.17 and 1.23 and 0.05 and 0.75 and 0.26 and 0.09 and 0.57 and 0.18 and 0.16 and 0.44 and 0.78
- pain sensitivity, in words ([1]; P2-1 prophylactic): significantly reduced CAIA-induced pain sensitivity through partial restoration of mechanical withdrawal thresholds
- pain sensitivity, in words ([1]; P2-1 therapeutic, Von Frey): significantly reduced CAIA-induced pain sensitivity by partially restoring withdrawal thresholds to mechanical stimuli
- CAIA-induced pain response (Vor Frey score) ([1]; Day 6, individual values): 0.37 and 0.11 and 0.21 and 0.16 and 1.19
- CAIA-induced pain response (Vor Frey score) ([1]; Day 10, individual values, P = 0.04443 vs. CAIA + Vehicle): 0.57 and 0.31 and 0.96 and 0.32 and 0.44
- HMGB1-induced cytokine/chemokine secretion, in words (human PBMCs): did not broadly inhibit the secretion of these HMGB1-induced cytokines and chemokines
